Results taken from ChEMBL document CHEMBL3885881, “DrugMatrix”.

Organism: Rattus norvegicus
Experiment: DrugMatrix - Regimen: Daily Repeat
Format: toxicity, organism-based, Sprague-Dawley
Parameters: regimen Daily Repeat, gender Male, age 6-8 weeks
Details: in vivo, po, route oral GAVAGE, vehicle 100 % WATER; for TOTAL PROTEIN / ALANINE AMINOTRANSFERASE / ALBUMIN / ALKALINE PHOSPHATASE / ASPARTATE AMINOTRANSFERASE / BLOOD UREA NITROGEN / CHLORIDE / CHOLESTEROL / CREATINE PHOSPHOKINASE / CREATININE / GLUCOSE / PHOSPHORUS / POTASSIUM / SODIUM / TOTAL BILIRUBIN: tissue Plasma; for BASOPHIL / EOSINOPHIL / ERYTHROCYTE COUNT / HEMATOCRIT / HEMOGLOBIN / LEUKOCYTE COUNT / LYMPHOCYTE / MEAN CORPUSCULAR HEMOGLOBIN / MEAN CORPUSCULAR HEMOGLOBIN CONCENTRATION / MEAN CORPUSCULAR VOLUME / MONOCYTE / NEUTROPHIL / PLATELET COUNT: tissue Blood
[1] = 53.5 mg/kg, 120 h, dose level Low, time 5 day
[2] = 535 mg/kg, 72 h, dose level High, time 3 day
[3] = 535 mg/kg, 120 h, dose level High, time 5 day

CN1C(=O)OC(C)(C)C1=O [TRIMETHADIONE]
TOTAL PROTEIN (53.5 mg/kg, 72 h, dose level Low, time 3 day): 6.65 G/DL | BASOPHIL [1]: 0% | EOSINOPHIL [1]: 0% | ERYTHROCYTE COUNT [1]: 6.06 x10E6/uL | HEMATOCRIT [1]: 36.17% | HEMOGLOBIN [1]: 14.4 G/DL | LEUKOCYTE COUNT [1]: 18.23 x10E3/uL | LYMPHOCYTE [1]: 83.33% | MEAN CORPUSCULAR HEMOGLOBIN [1]: 23.8 pg | MEAN CORPUSCULAR HEMOGLOBIN CONCENTRATION [1]: 39.83 G/DL | MEAN CORPUSCULAR VOLUME [1]: 59.7 fL | MONOCYTE [1]: 2.33% | NEUTROPHIL [1]: 14.33% | PLATELET COUNT [1]: 1288 x10E3/uL | ALANINE AMINOTRANSFERASE [1]: 36.67 u/L | ALBUMIN [1]: 3.57 G/DL | ALKALINE PHOSPHATASE [1]: 314 u/L | ASPARTATE AMINOTRANSFERASE [1]: 59 u/L | BLOOD UREA NITROGEN [1]: 12 mg/dL | CHLORIDE [1]: 102.33 MEQ/L | CHOLESTEROL [1]: 70.67 mg/dL | CREATINE PHOSPHOKINASE [1]: 109.33 u/L | CREATININE [1]: 0.6 mg/dL | GLUCOSE [1]: 190.67 mg/dL | PHOSPHORUS [1]: 13.13 mg/dL | POTASSIUM [1]: 6.6 MEQ/L | SODIUM [1]: 151.33 MEQ/L | TOTAL BILIRUBIN [1]: 0.3 mg/dL | TOTAL PROTEIN [1]: 6.5 G/DL | BASOPHIL [2]: 0% | EOSINOPHIL [2]: 0% | ERYTHROCYTE COUNT [2]: 6.23 x10E6/uL | HEMATOCRIT [2]: 37.4% | HEMOGLOBIN [2]: 14.63 G/DL | LEUKOCYTE COUNT [2]: 13.2 x10E3/uL | LYMPHOCYTE [2]: 82.67% | MEAN CORPUSCULAR HEMOGLOBIN [2]: 23.5 pg | MEAN CORPUSCULAR HEMOGLOBIN CONCENTRATION [2]: 39.13 G/DL | MEAN CORPUSCULAR VOLUME [2]: 60 fL | MONOCYTE [2]: 5.67% | NEUTROPHIL [2]: 11.67% | PLATELET COUNT [2]: 1178.33 x10E3/uL | ALANINE AMINOTRANSFERASE [2]: 42.67 u/L | ALBUMIN [2]: 3.63 G/DL | ALKALINE PHOSPHATASE [2]: 285 u/L | ASPARTATE AMINOTRANSFERASE [2]: 71 u/L | BLOOD UREA NITROGEN [2]: 12.67 mg/dL | CHLORIDE [2]: 98.33 MEQ/L | CHOLESTEROL [2]: 72 mg/dL | CREATINE PHOSPHOKINASE [2]: 136.33 u/L | CREATININE [2]: 0.57 mg/dL | GLUCOSE [2]: 181.33 mg/dL | PHOSPHORUS [2]: 12.93 mg/dL | POTASSIUM [2]: 6.83 MEQ/L | SODIUM [2]: 152 MEQ/L | TOTAL BILIRUBIN [2]: 0.27 mg/dL | BASOPHIL [3]: 0% | EOSINOPHIL [3]: 0.33% | ERYTHROCYTE COUNT [3]: 5.77 x10E6/uL | HEMATOCRIT [3]: 33.97% | HEMOGLOBIN [3]: 13.13 G/DL | LEUKOCYTE COUNT [3]: 10.67 x10E3/uL | LYMPHOCYTE [3]: 78.67% | MEAN CORPUSCULAR HEMOGLOBIN [3]: 22.8 pg | MEAN CORPUSCULAR HEMOGLOBIN CONCENTRATION [3]: 38.67 G/DL | MEAN CORPUSCULAR VOLUME [3]: 58.97 fL | MONOCYTE [3]: 2.67% | NEUTROPHIL [3]: 18.33% | PLATELET COUNT [3]: 1123.33 x10E3/uL | ALANINE AMINOTRANSFERASE [3]: 42 u/L | ALBUMIN [3]: 3.67 G/DL | ALKALINE PHOSPHATASE [3]: 272.33 u/L | ASPARTATE AMINOTRANSFERASE [3]: 78.33 u/L | BLOOD UREA NITROGEN [3]: 14.67 mg/dL | CHLORIDE [3]: 99.33 MEQ/L | CHOLESTEROL [3]: 74.33 mg/dL | CREATINE PHOSPHOKINASE [3]: 143.67 u/L | CREATININE [3]: 0.57 mg/dL | GLUCOSE [3]: 180.33 mg/dL | PHOSPHORUS [3]: 13.1 mg/dL | POTASSIUM [3]: 6.6 MEQ/L | SODIUM [3]: 153.33 MEQ/L | TOTAL BILIRUBIN [3]: 0.27 mg/dL | TOTAL PROTEIN [3]: 6.53 G/DL
